Like-named read-outs stand apart in the source and are kept apart here.
How the values were obtained:
[1] = tested on: hippocampus of rats injected with oAβ25–35; assay: Western blot of hippocampal AD biomarkers in oAβ25–35-injected rats; assay type: in vivo, rat; conditions: oAβ25–35 icv
Procedure: As previously detailed,[37],[64] to induce the acute model of AD (oAβ25–35 model), rats were divided into three groups. […] The animals were anesthetized with an intraperitoneal (ip) injection of a mixture of ketamine and xylazine (80 and 10 mg/kg b.w., respectively). Scrambled peptide and oAβ25–35 were injected directly into the lateral ventricles at a rate of 2 μL/min using a David-Kopf stereotaxic apparatus (coordinates of injection: AP −1 mm, L ±1.5 mm, DV −3.5 mm).
On day 14, animals were subjected to a behavioral memory test (T-maze) and sacrificed on day 15 by decapitation.
(§1) 2—A preventive approach: This treatment was started at the same time as the induction of amyloid toxicity and consisted of implanting ip, and during the same anesthetic procedure necessary for the icv injection of oAβ25–35, an osmotic pump (Alzet-EML2, Charles-River, France) which continuously delivered the molecules for 1 week at the dose of 3 mg/kg/day. On day 7, animals were submitted to a behavioral memory test (T-maze) and sacrificed on day 8 by decapitation.
At the time of sacrifice, all hippocampi were dissected out, weighed, and rapidly frozen in liquid nitrogen for Western blot (WB) analysis.
Western blot analyses were performed on the whole hippocampus as previously described.[37] All antibodies used are detailed in Table S3. Briefly, after sacrifice, hippocampi were microdissected, weighed, immediately frozen in liquid nitrogen, and stored at −20 °C. Tissues were sonicated (VibraCell; Sonics & Materials, USA) in a lysis buffer[37] and centrifuged (4 °C). Supernatants were collected, and the protein concentration was measured using a bicinchoninic Acid (BCA) assay (ThermoFisher Scientific, France). […] The membranes were incubated overnight (4 °C) with the primary antibody, washed, and then incubated for 2 h with the appropriate horseradish peroxidase-conjugated secondary antibody. […] The intensity of the immunoreactive signals was quantified using Image-J software (NIH, Bethesda, […], USA). β-Tubulin (β-Tub) was used as a loading control for all experiments.

human 5-HT7b = molecular target: T1, human 5-HT7b (Homo sapiens, UniProt P34969); assay: 5-HT7R binding ([3H]-5-CT), HEK293; conditions: read-out: serotonin 5-HT7 % inhibition at 1 microM
T1 construct: expressed in transfected cells
Procedure: 3. Selectivity screen of PZ-1922
For membrane preparation,
EDTA and 1 mM dithiothreitol.
The composition of the assay buffers was
reader (PerkinElmer, USA).
(§2) The results were expressed as the %
(§3) www.eurofinsdiscovery.com.

[2] = Chemical stability (hydrolysis, oxidation); conditions: acidic and basic hydrolysis (0.5 M HCl and 0.5 M NaOH at 60 °C) and oxidizing conditions (10% H2O2 at room temperature)
5-HT2AR = 5-HT2AR (Homo sapiens, UniProt P28223); assay: 5-HT2AR binding ([3H]-ketanserine), Eurofins; conditions: read-out: serotonin 5-HT2A % inhibition at 1 microM
From the text: as §2, §3

dopaminergic D3R = dopaminergic D3R (Homo sapiens, UniProt P35462); assay: D3R binding ([3H]-methylspiperone), Eurofins; conditions: read-out: dopamine D3 % inhibition at 1 microM
From the text: as §2, §3

[3] = Preliminary pharmacokinetics in male Wistar rats, plasma and brain; assay type: in vivo; conditions: rat; for MRT: read-out: MRT mean residence time (converted)
[4] = tested on: oAβ25–35-induced memory deficits in rats; assay: oAβ25–35-induced memory deficits in T-maze test in rats; assay type: in vivo, rat
Procedure: For the AD model, adult male Sprague–Dawley rats (Janvier Lab., France) weighing 260–280 g (8 weeks) at the beginning of the experiments were housed 1 week before experiments in a standard animal facility of the University of Montpellier (CECEMA, registration number E34-172-23) (12/12 h light/dark cycle with lights on at 07:00; 21 ± 1 °C, food and water ad libitum). All experiments, including sacrifices, were performed in conscious rats between 09:00 and 12:00, during the diurnal period of the circadian rhythm. Male has been preferred over female because the latter may present a confounding factor of the estrous cycle, a parameter that needs to be systematically controlled. Animal procedures were conducted in strict adherence to the European Union Directive of 2010 (2010/63/EU). The National French Animal Welfare Committee and the local committee at the University of Montpellier approved all protocols (authorization: CEEA-LR-12160). All efforts were made to minimize the number of animals used, potential pain, suffering, and distress.
As previously detailed,[37],[64] to induce the acute model of AD (oAβ25–35 model), rats were divided into three groups. One group had no surgery (Naive group), a second set of animals received an intracerebroventricular (icv) injection of incubated scrambled peptide (negative control groups—10 μg/rat—Sc), and a third set received an icv injection of oAβ25–35 (AD groups—10 μg/rat—Aβ). The animals were anesthetized with an intraperitoneal (ip) injection of a mixture of ketamine and xylazine (80 and 10 mg/kg b.w., respectively). Scrambled peptide and oAβ25–35 were injected directly into the lateral ventricles at a rate of 2 μL/min using a David-Kopf stereotaxic apparatus (coordinates of injection: AP −1 mm, L ±1.5 mm, DV −3.5 mm).
1—A curative approach: This treatment was started 1 week after the induction of amyloid toxicity (icv injection of oAβ25–35) and consisted of 2 ip injections (1.5 mg/kg per injection) per day for 1 week. On day 14, animals were subjected to a behavioral memory test (T-maze) and sacrificed on day 15 by decapitation.
as §1
As previously reported, the T-maze test was used to rapidly assess cognitive ability in rats, especially the short-term memory deficits, when performed in two successive sessions.[37],[38],[64],[65] The T-maze consisted of two short arms (A and B), extending from a longer alley (C) and enclosed with high walls. The test involved two trials, separated by 1 h. During the training session, one short arm (B) was closed. Rats were placed at the end of the long alley, allowed to visit the maze for 10 min, and then returned to their home cage. […] The number of visits and time spent in each arm were measured. The results were expressed as the ratio of the time spent in the initially closed novel arm, over the time spent in the previous arm, and as a ratio of the number of entries into the novel arm over the familiar one. […]

[5] = 1.5 mg/kg ip twice a day for 7 days
[6] = 3 mg/kg/day osmotic pump 1 week
[7] = curative and preventive approach
[8] = male, Wistar, po, 3 mg/kg intragastric, plasma
[9] = male, Wistar, 3 mg/kg intravenous, plasma

Chain of 5-HT2AR (P28223 whole entry): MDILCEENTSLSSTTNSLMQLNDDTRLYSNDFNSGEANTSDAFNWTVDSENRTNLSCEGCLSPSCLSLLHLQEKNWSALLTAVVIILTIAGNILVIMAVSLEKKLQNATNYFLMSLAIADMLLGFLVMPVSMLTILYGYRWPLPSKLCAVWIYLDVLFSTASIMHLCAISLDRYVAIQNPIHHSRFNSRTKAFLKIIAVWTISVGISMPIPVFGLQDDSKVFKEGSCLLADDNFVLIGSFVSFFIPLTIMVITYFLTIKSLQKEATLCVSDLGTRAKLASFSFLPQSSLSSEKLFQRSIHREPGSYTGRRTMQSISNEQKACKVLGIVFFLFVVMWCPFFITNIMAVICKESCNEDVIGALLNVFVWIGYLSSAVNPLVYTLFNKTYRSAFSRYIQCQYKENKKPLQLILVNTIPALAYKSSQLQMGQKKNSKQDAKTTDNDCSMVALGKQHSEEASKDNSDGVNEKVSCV
T1 sequence (P34969 1-432 limits assumed): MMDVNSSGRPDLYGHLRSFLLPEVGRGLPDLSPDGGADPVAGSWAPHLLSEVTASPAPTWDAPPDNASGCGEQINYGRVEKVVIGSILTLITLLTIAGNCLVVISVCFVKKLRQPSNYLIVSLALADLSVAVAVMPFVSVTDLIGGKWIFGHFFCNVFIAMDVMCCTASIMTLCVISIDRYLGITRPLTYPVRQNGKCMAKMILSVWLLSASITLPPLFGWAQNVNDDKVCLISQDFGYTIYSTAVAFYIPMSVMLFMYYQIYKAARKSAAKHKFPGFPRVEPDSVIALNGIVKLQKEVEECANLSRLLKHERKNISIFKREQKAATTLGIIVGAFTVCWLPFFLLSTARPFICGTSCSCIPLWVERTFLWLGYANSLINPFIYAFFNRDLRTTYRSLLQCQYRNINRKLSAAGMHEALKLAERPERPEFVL
Chain of dopaminergic D3R (P35462 whole entry): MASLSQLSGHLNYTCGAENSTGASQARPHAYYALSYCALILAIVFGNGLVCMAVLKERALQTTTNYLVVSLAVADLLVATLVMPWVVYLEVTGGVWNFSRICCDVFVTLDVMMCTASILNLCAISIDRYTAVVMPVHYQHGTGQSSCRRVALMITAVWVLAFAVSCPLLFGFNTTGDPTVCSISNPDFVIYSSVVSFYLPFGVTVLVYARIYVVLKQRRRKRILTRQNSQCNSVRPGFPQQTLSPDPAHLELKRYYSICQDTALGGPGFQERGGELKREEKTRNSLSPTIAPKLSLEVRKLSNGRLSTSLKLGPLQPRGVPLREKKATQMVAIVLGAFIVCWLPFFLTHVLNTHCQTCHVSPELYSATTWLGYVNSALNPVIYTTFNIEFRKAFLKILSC

Question: Which “hippocampal Caspase-3 and Pro-caspase-3 expression, curative strategy” value [1, 5] does the source give for `Cl.Clc1cccc(Cn2ccc3c(N4CCNCC4)nc4ccccc4c32)c1` [PZ-1922, 1-(3-Chlorobenzyl)-4-(piperazin-1-yl)-1H-pyrrolo[3,2-c]quinoline Hydrochloride] here?
Answer: The value was “decreased expression of Caspase-3 and Pro-caspase-3”.

Question: What about the “hippocampal PSD-95 and SYN levels, curative treatment” value [1, 5] of the same compound?
Answer: Its value is “reversed PSD-95 and SYN levels”.

Question: And the “hippocampal Caspase-3 and Pro-caspase-3 expression, preventive treatment” value [1, 6]?
Answer: The value was “prevented increased expression of Caspase-3 and Pro-caspase-3”.

Question: And the “hippocampal PSD-95 and SYN levels, preventive treatment” value [1, 6]?
Answer: The value was “reversed PSD-95 and SYN levels”.

Question: And the “hippocampal GFAP increase” value [1, 7]?
Answer: Its value is “Neither PZ-1922 nor intepirdine impacted the GFAP increase”.

Question: What about the “hippocampal Iba1 level” value [1, 7] of the same compound?
Answer: Its value is “decreased the Iba1 level regardless of the applied approach”.

Question: What about the inhibition at 1 µM (human 5-HT7b) of the same compound?
Answer: Its inhibition at 1 µM is 2%.

Question: And the chemical stability [2]?
Answer: The chemical stability was “chemically stable”.

Question: What about the inhibition at 1 µM (5-HT2AR) of the same compound?
Answer: Its inhibition at 1 µM is 5%.

Question: What about the inhibition at 1 µM (dopaminergic D3R) of the same compound?
Answer: The inhibition at 1 µM was 31%.

Question: What about the MRT ([3]; male, Wistar, po, 3 mg/kg intragastric, brain) of the same compound?
Answer: The MRT was 4.58 h.

Question: And the AUC(0-t) [3, 8]?
Answer: The AUC(0-t) was 224 ng·h/mL.

Question: What about the Cmax [3, 8] of the same compound?
Answer: Its Cmax is 38.6 ng/mL.

Question: What about the Tmax [3, 8] of the same compound?
Answer: Its Tmax is 2 h.

Question: What about the MRT [3, 8] of the same compound?
Answer: The MRT was 3.93 h.

Question: What about the MRT ([3]; male, Wistar, 3 mg/kg intravenous, brain) of the same compound?
Answer: Its MRT is 2.83 h.

Question: And the AUC(0-t) [3, 9]?
Answer: Its AUC(0-t) is 467 ng·h/mL.

Question: And the clearance ([3]; male, Wistar, 3 mg/kg intravenous, plasma, read-out: Cl clearance)?
Answer: Its clearance is 39.2 mL/min/kg.

Question: What about the MRT [3, 9] of the same compound?
Answer: The MRT was 3.48 h.

Question: What about the AUC0→t ([3]; 3 mg/kg intragastric, brain) of the same compound?
Answer: The AUC0→t was 42186 ng·min/g.

Question: And the AUC0→t ([3]; 3 mg/kg intravenous, brain)?
Answer: The AUC0→t was 170827 ng·min/g.

Question: And the “effect on oAβ25–35-induced memory deficits in T-maze, curative treatment” value ([4]; 1.5 mg/kg ip twice a day for 7 days, started 1 week after icv oAβ25–35)?
Answer: The value was “effectively reversed the memory deficits”.

Question: And the “effect on oAβ25–35-induced memory deficits in T-maze, preventive treatment” value ([4]; 3 mg/kg/day by ip osmotic pump for 1 week, concomitant with icv oAβ25–35)?
Answer: The value was “prevented the emergence of cognitive deficits”.

Question: And the “In vivo effective dose, T maze test in rats after oAB administration, preventive treatment” value ([4]; preventive treatment)?
Answer: The value was 3 mg/kg.
